pIC50: −log10 of the molar value.

Consider two compounds from publication PMC10382516, “Exploring ND-011992, a quinazoline-type inhibitor targeting quinone reductases and quinol oxidases” (Scientific Reports, 2023).

The target in one series is T1, E. coli bd-II oxidase (Escherichia coli, UniProt P26459).
T1 construct: His-tag; made in house; host or cells: E. coli BL21*Δcyo/pET28b(+)::appChisBX
As to the kind of experiment: Duroquinol:oxygen oxidoreductase activity of isolated bd-II oxidase. It counts as biochemical. Here is the method: (§1) E. coli bd-I oxidase was isolated from strain BL21*Δcyo/pET28b( +)::cydAhisBX[13], bd-II oxidase from strain BL21*Δcyo/pET28b( +)::appChisBX[19] and bo3 oxidase from strain BL21*Δcyo/pET28b( +)::cyoAhisBCD (see ‘Methods’). The index “his” indicates the subunit of the enzyme complexes decorated with a His-tag. All strains were grown under oxic conditions in full medium. Cells were harvested and disrupted and cytoplasmic membranes were prepared by differential centrifugation. Membrane proteins were extracted with the detergent lauryl maltose neopentyl glycol (LMNG) and purified to homogeneity by affinity-, anion exchange- and size exclusion-chromatography (see Supplementary Figs. S7–S9).
(§2) The affinity of ND-011992 towards the isolated oxidases was determined by its inhibition of the duroquinol:oxygen oxidoreductase activity measured as decrease of oxygen concentration. […] Thus, there is a significant two-fold difference in binding of ND-011992 towards the two homologous oxidases. Furthermore, the IC50 is higher than that to respiratory complex I, showing that the compound binds better to complex I than to bd-I and to bd-II oxidase. Incorporation of bromine to the compound led to significant changes of inhibition.
(§3) The duroquinol:oxygen oxidoreductase activity of isolated E. coli bd-I, bd-II and bo3 oxidase was determined by monitoring the oxygen consumption with a Clark-type oxygen electrode (Oxyview System, Hansatech Instruments)[20],[33]. All steps were conducted at 30 °C. The reaction chamber was filled with 2 mL 20 mM MOPS, 20 mM NaCl, 0.003% LMNG, pH 7.0. After formation of a stable baseline, 10 μL dithiothreitol (DTT) (1 M) and 5 μL duroquinone in ethanol (100 mM) were added and incubated for 1 min. The non-enzymatic reaction rate was determined. 10 μL enzyme in LMNG (2 mg/mL) were added to start the reaction. The rates were corrected for the non-enzymatic reaction. After 1 min, the reaction was inhibited by adding various amounts (0.01–50 µM) of ND-011992 and 2, respectively. Each data point was measured in triplicates. The standard deviation of each measurement is provided.

The target of the next series is T2, E. coli bo3 oxidase (Escherichia coli, UniProt P0ABI8).
T2 construct: made in house; host or cells: E. coli BL21*Δcyo/pET28b(+)::cyoAhisBCD
T2 sequence (P0ABJ6 whole entry): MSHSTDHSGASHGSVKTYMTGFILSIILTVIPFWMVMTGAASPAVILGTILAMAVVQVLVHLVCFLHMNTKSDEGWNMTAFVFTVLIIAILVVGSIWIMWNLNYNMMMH
T2 sequence (P0ABJ3 whole entry, further chain): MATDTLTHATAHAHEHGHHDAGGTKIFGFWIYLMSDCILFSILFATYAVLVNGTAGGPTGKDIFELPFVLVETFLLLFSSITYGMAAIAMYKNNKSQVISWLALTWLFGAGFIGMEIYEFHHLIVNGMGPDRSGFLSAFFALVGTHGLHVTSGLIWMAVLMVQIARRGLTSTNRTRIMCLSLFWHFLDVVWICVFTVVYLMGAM
T2 sequence (P0ABJ1 25-315, further chain): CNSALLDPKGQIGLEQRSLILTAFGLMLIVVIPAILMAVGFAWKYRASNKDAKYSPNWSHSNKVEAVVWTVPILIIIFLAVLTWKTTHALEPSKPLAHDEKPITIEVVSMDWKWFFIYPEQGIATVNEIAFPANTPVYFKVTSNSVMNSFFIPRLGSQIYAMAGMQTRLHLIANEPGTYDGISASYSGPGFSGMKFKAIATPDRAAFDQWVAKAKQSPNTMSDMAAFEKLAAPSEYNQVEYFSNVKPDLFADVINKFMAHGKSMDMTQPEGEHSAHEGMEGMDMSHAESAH
T2 sequence (P0ABI8 whole entry): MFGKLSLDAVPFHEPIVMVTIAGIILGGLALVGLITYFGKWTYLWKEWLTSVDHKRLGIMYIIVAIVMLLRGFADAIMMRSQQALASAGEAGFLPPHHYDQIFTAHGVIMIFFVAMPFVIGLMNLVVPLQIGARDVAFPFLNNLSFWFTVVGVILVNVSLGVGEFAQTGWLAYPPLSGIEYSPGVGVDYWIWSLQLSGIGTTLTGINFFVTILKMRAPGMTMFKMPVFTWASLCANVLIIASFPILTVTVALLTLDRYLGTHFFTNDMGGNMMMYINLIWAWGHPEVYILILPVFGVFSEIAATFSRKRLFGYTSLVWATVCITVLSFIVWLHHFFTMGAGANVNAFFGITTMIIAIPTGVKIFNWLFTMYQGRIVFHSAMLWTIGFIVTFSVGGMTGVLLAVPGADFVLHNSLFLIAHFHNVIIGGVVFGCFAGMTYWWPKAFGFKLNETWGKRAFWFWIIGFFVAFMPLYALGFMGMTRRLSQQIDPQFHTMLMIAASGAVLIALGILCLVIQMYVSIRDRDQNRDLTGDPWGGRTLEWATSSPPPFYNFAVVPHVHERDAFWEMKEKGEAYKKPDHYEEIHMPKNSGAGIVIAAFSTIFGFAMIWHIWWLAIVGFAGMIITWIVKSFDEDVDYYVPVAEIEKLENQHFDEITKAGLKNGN
Description: Duroquinol:oxygen oxidoreductase activity of isolated bo3 oxidase. It counts as biochemical. Here is the method:
as §1
Because it was claimed that ND-011992 is an inhibitor specific for bd oxidases, we also determined its IC50 towards the isolated bo3 oxidase. As bd oxidases, bo3 oxidase is also a quinol oxidase.
The duroquinol:oxygen oxidoreductase activity of isolated E. coli bd-I, bd-II and bo3 oxidase was determined by monitoring the oxygen consumption with a Clark-type oxygen electrode (Oxyview System, Hansatech Instruments)[20],[33]. All steps were conducted at 30 °C. The reaction chamber was filled with 2 mL 20 mM MOPS, 20 mM NaCl, 0.003% LMNG, pH 7.0. […] The non-enzymatic reaction rate was determined. […] Each data point was measured in triplicates. […]

Details of series [1]: method as in PMID 33283973. The settings on record: as mentioned in the original publication; cited from earlier work.
The test system of series [2] is d-NADH oxidase activity of BL21*Δcyo membranes. As to the kind of experiment: d-NADH oxidase activity of E. coli BL21*Δcyo cytoplasmic membranes. It counts as biochemical, Escherichia coli. The settings on record: d-NADH as substrate, 30 °C. Here is the method:
(§4) The inhibitory effect of ND-011992 on the NADH oxidase activity of membranes from E. coli strain BL21*Δcyo was determined. This activity is mainly mediated by the primary NADH dehydrogenases and the terminal oxidases. Strain BL21*Δcyo chromosomally lacks the bo3-oxidase and contains the homologous bd-I and bd-II oxidases as the only terminal oxidases. BL21*Δcyo was grown in full medium, cells were harvested and disrupted and cytoplasmic membranes were prepared by differential centrifugation. With NADH as substrate, electrons might enter the respiratory chain either via complex I or via the alternative, non-energy converting NADH dehydrogenase, NDH-II. […] Second, deamino-NADH (d-NADH) was used as substrate to determine the d-NADH oxidase activity of BL21*Δcyo membranes. d-NADH is a substrate specific for complex I preventing electron entry to the respiratory chain via NDH-II[15],[16]. […] The shift of the IC50 in dependence from the substrate already indicates a high-affinity inhibition of respiratory complex I by ND-011992.
(§5) The (d-)NADH oxidase activity of cytoplasmic membranes was determined with an Clark-type oxygen electrode (Oxyview System, Hansatech Instruments) at 30 °C[19]. […] The non-enzymatic reaction was determined after formation of a stable baseline. […] The protein concentration of membranes were determined by the biuret-method[32]. […]

Another series concerns the target respiratory complex I (Escherichia coli, UniProt P0AFC7+P0AFD4+P33599). Description: d-NADH:decyl-ubiquinone oxidoreductase activity of E. coli CBO cytoplasmic membranes. It counts as biochemical. The settings on record: 1 mM KCN.
The target of the next series is T3, E. coli bd-I oxidase (Escherichia coli, UniProt P0ABJ9).
T3 construct: His-tag; made in house; host or cells: E. coli BL21*Δcyo/pET28b(+)::cydAhisBX
T3 sequence (P0ABJ9 whole entry): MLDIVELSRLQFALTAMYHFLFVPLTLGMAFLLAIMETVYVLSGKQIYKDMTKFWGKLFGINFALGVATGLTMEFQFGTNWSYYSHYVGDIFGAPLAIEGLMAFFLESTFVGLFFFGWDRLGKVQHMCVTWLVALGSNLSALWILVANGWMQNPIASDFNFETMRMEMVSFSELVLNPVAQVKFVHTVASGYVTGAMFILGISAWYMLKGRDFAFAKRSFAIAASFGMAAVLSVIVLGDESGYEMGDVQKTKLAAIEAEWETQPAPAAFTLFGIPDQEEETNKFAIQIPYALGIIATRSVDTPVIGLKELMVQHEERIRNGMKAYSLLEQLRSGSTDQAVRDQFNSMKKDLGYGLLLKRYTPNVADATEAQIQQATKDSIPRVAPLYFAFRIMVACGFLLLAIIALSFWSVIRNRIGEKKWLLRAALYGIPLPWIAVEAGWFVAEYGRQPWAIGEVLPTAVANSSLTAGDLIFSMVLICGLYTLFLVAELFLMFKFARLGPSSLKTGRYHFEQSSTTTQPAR
T3 sequence (P56100 whole entry, further chain): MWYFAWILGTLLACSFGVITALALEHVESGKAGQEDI
T3 sequence (P0ABK2 whole entry, further chain): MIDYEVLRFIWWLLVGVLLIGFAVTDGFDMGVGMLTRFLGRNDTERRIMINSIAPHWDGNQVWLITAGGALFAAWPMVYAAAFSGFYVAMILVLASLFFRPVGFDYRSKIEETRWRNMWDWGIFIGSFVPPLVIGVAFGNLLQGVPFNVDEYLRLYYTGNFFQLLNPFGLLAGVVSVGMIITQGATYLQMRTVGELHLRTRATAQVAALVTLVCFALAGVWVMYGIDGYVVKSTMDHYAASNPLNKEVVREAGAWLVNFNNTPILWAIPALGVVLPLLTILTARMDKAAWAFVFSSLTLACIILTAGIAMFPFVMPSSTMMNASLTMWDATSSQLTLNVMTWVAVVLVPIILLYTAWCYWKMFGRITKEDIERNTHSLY
Description: Duroquinol:oxygen oxidoreductase activity of isolated bd-I oxidase. It counts as biochemical. As to the method: as §1, §2, §3

In the next series the target is mitochondrial complex I (Bos taurus, UniProt P03887+P17694+P42026). It counts as biochemical, bovine.
Series [3] has as its system NADH oxidase activity of membranes from E. coli strain BL21*Δcyo. Description: NADH oxidase activity of E. coli BL21*Δcyo cytoplasmic membranes (Clark-type oxygen electrode). It counts as biochemical, Escherichia coli. Here is the method: as §4, §5

T1 sequence (P26458 whole entry): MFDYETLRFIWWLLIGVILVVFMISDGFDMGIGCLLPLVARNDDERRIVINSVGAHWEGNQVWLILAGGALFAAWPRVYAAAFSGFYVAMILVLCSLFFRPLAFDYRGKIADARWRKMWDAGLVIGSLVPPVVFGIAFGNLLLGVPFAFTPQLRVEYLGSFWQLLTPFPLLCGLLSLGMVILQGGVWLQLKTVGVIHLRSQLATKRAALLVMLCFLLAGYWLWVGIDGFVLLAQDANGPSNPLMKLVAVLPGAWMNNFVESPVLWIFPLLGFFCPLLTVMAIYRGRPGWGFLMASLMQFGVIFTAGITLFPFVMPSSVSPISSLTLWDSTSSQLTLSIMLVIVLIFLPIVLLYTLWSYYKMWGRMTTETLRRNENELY
T1 sequence (P24244 whole entry, further chain): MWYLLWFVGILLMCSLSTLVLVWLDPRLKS
T1 sequence (P26459 whole entry): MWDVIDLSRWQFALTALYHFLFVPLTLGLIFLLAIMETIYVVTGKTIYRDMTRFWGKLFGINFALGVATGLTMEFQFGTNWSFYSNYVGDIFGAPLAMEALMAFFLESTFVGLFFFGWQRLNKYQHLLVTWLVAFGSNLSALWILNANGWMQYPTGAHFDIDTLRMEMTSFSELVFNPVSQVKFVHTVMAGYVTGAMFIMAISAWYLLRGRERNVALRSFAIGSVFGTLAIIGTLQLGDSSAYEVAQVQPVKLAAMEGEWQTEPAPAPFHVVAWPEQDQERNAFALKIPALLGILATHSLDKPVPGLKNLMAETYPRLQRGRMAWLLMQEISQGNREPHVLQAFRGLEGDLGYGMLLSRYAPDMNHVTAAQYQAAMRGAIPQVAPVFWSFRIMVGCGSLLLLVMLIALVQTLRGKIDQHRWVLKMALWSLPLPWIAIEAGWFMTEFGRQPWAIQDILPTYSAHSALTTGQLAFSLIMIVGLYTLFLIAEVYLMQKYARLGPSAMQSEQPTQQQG

For `FC(F)(F)c1ccc(Oc2ccc(Nc3ncnc4ccccc34)cc2)cc1` [ND-011992, N-(4-(4-(trifluoromethyl)phenoxy)phenyl)quinazolin-4-amine], the pIC50 was 5.89 against E. coli bd-II oxidase; 5.61 at E. coli bo3 oxidase; 6.59 in series [2]; 6.92 on respiratory complex I; 6.20 against E. coli bd-I oxidase; 5.49 at mitochondrial complex I. Moreover, the pIC50 in series [3] (E. coli BL21*Δcyo membranes, NADH as substrate, 30 °C) is 6.37. For the same compound, the residual activity entry on E. coli bd-II oxidase (isolated bd-II oxidase, partial inhibition in titration) is “about 20%”; on E. coli bo3 oxidase (isolated bo3 oxidase, partial inhibition in titration), “about 20%”; at E. coli bd-I oxidase (isolated bd-I oxidase, partial inhibition in titration), “about 20%”; on mitochondrial complex I (bovine heart mitochondrial membranes, NADH oxidase activity) it was “about 20%”. Moreover, the pharmacokinetic properties result in series [1] is listed as “poor”.
As to `FC(F)(F)c1ccc(Oc2ccc(Nc3ncnc4ccc(Br)cc34)cc2)cc1` [compound 2, 6-bromo-N-(4-(4-(trifluoromethyl)phenoxy)phenyl)quinazolin-4-amine], the results for the pIC50 against E. coli bd-II oxidase and on E. coli bd-I oxidase were 6.89 and 5.99, respectively. In addition, the “effect on the NADH oxidase activity of E. coli membranes” value in series [3] (micromolar concentration range) is reported as “no effect”.

Usually pIC50 stands for the negative decadic logarithm of the IC50, by convention in mol/L.
